# In US20230348487A1, “2-AMINOPYRIMIDINE COMPOUND AND PHARMACEUTICAL COMPOSITION THEREOF AND APPLICATION THEREOF” (GUANGZHOU SALUSTIER BIOSCIENCES CO., LTD., priority 2021, published 2023):
# Read-outs that look alike come from different tables or passages of the source.
# Legend:
# [1] = Rat liver microsomes stability test; format: in vitro ADME; settings: for Remaining percentage: rat liver microsomes, average value; for CLint scaled at 1 µM / half-life at 1 µM: rat, liver microsomes, pH 7.4, rat liver microsomes
# Method: Firstly, preheated 0.1 M potassium phosphate buffer with 5 mM MgCl2 (i.e. K/Mg buffer) at pH 7.4±0.1. Prepared the spiked solution for the tested compound and reference compound (500 μM spiked solution: added 5 μL of 10 mM stock solution into 95 μL of acetonitrile; 1.5 μM microsomal spiked solution (0.75 mg/mL): added 1.5 μL of 500 μM spiked solution and 18.75 μL of 20 mg/mL liver microsomes into 479.75 μL of K/Mg buffer). Then NADPH was dissolved in buffer K to prepare a 6 mM, 5 mg/mL NADPH stock solution. At different time points (0-, 5-, 15-, 30-, 45 minutes), 30 μL of 1.5 μM spiked solution containing 0.75 mg/mL of microsome solution was distributed onto the designated detection plate. At 0 min, 150 μL of acetonitrile containing internal standard (IS) was added to the 0 min plate well, followed by 15 μL of NADPH stock solution (6 mM). Then, all plates were pre-incubated at 37° C. for 5 minutes, added 15 μL of NADPH stock solution (6 mM), the reaction was initiated and timed. At 5 minutes, 15 minutes, 30 minutes, and 45 minutes, added 150 μL of acetonitrile solution containing IS to the corresponding wells to stop the reaction. After quenching, the plate was shaken for 10 minutes (600 rpm/min), followed by centrifugation at 6000 rpm/min for 15 minutes. 80 μL of supernatant of each well were transferred into a 96-well sample plate containing 140 μL of ultrapure water to perform LC/MS analysis. The analysis of biological samples and all samples were completed by the analysis laboratory of Medicipia Pharmaceutical Technology (Shanghai) Co., Ltd.
# U937 cells = assay: In vivo anti-tumor activity, U937 subcutaneous tumor in mice
# Method: Animal model: 4-6 weeks old Male CB-17 SCID mice
# U937 cells were cultured in vitro (1640+10% FBS+1% dual antibody) and amplified to 50 plates (10 cm). The cells were collected into a 50 mL centrifuge tube, centrifuged at 800 rpm for 5 minutes. The supernatant was discarded, and the cells was enriched into a 50 mL sterile centrifuge tube, washed once with PBS, and centrifuged at 800 rpm for 5 minutes. The cells were suspended with an appropriate amount of sterile PBS, counted and diluted to 2×10^7 cells/mL; 0.2 mL cells per animal were inoculated subcutaneously in the right anterior axilla of the animal (preferably inoculated before the animal is 20 g).
# 5-7 days after inoculation (Since U937 tumor grows fast, observe once every 3 days), when the tumor grew to 100-200 mm^3, the mice were grouped and administered the drugs, and excluded the animals with too large or too small tumors. The mice were randomly divided into a medication group and a solvent group, with 6 mice in each group. The initial tumor volume and body weight were recorded on the day of grouping.
# The administration cycle was 10 days, and daily administration was applied. The body weight and tumor volume of animals were measured once every 2 days. The formula for calculating tumor volume is: V=π/6*a*b*b (wherein a and b are the length and width of the tumor, respectively). The next day after the end of administration, the animal was weighed and the tumor volume was measured; and then the animal was sacrificed and the tumor was dissected to weighed. The tumor body was fixed with neutral formalin for pathological observation. Animal blood samples were collected for routine blood analysis according to experimental needs, and the main organs of the animals were collected for pathological analysis. At the end of the study, all animals were euthanized and the tumors, livers, kidneys, and lungs of […] were collected for further analysis.
# [2] = system: phosphorylation of JAK3 and STAT5 in U937 cells; assay: Wash out experiment in U937 cells; format: cell-based, human; settings: 200 nM 10 hours then removed
# Method: Cell line: human acute myeloid leukemia cell line U937
# After 200 nM test compound LS6-45 was co-incubated with U937 cells for 10 hours, the supernatant was discarded by centrifugation. The cells were collected and washed with PBS to remove residual compounds. After adding fresh culture medium, the cells continued to be cultured in a 37° C. incubator. Cells were collected at 0, 0.5, 1, 2, 4, 8, 12, and 16 hours, and protein was extracted for Western blot analysis.
# [3] = system: human chronic myeloid leukemia cell line K562; assay: CCK-8 in vitro proliferation inhibition; format: cell-based; settings: Homo sapiens, K562, 72 hours, read-out: Inhibitory activity (IC50) on cell proliferation, K562
# [4] = system: human acute myeloid leukemia cell line U937; assay: CCK-8 in vitro proliferation inhibition; format: cell-based; settings: Homo sapiens, U-937, 72 hours, read-out: Inhibitory activity (IC50) on cell proliferation, U937
structure (smiles),measurement,setting,value
C=CC(=O)Nc1cc(Nc2ncc(Cl)c(O[C@@H]3CO[C@H]4[C@@H]3OC[C@H]4OC)n2)ccc1N(C)CCN(C)C [LS 6-45],Remaining percentage,[1]; 0 min,100.00%
same,Remaining percentage,[1]; 5 min,95.76%
same,Remaining percentage,[1]; 15 min,90.38%
same,Remaining percentage,[1]; 30 min,87.93%
same,Remaining percentage,[1]; 45 min,79.61%
same,CLint scaled at 1 µM,"[1]; calculated value below the 20.70 limit, read-out: Clint (value in parentheses)",16.6 mL/min/kg
same,half-life at 1 µM,"[1]; calculated value beyond the 120 min limit, read-out: T1/2 (value in parentheses)",2.5 h
same,CLint scaled at 1 µM,[1]; read-out: Clint,< 20.7 mL/min/kg
same,half-life at 1 µM,[1]; read-out: T1/2,> 2 h
same,toxic side effects and body weight,"U937 cells; CB-17 SCID mice, during the administration period",no toxic side effects and no signs of weight loss
same,tumor growth,"U937 cells; U937 tumor in CB-17 SCID mice, 50 mg/kg dose group, oral bid",completely stagnant or even regressed
same,growth rate of tumors,"U937 cells; U937 tumor in CB-17 SCID mice, during 10 days administration, versus control group",significantly lower than that of the control group
same,"phosphorylation of JAK3, STAT3, STAT5 and cell cycle related proteins in tumor tissues (Western blot)","U937 cells; tumor tissues of experimental mice, compared with control group",significant inhibitory effects
same,phosphorylation levels of JAK3 and STAT5 after wash out,[2]; between 8-12 hours,slowly recovered
same,phosphorylation levels of JAK3 and STAT5 after wash out,[2]; within 8 hours,continuously inhibited
same,IC50,[3],335 nM
same,IC50,[4],20.2 nM
